Laboratory results taken from patent publication US7795261B2, “Substituted 1-piperidin-4-yl-4-pyrrolidin-3-yl-piperazine derivatives and their use as neurokinin antagonists” (Janssen Pharmaceutica NV, priority 2002, dated 2010).

Legend:
NK3 = target: T1, NK3 (Homo sapiens, UniProt P29371); assay: Signal transduction (ST), intracellular Ca++ (FLIPR), NK3; format: cell-based; details: read-out: pIC50 NK3 (converted)
T1 sequence (P29371 1-465): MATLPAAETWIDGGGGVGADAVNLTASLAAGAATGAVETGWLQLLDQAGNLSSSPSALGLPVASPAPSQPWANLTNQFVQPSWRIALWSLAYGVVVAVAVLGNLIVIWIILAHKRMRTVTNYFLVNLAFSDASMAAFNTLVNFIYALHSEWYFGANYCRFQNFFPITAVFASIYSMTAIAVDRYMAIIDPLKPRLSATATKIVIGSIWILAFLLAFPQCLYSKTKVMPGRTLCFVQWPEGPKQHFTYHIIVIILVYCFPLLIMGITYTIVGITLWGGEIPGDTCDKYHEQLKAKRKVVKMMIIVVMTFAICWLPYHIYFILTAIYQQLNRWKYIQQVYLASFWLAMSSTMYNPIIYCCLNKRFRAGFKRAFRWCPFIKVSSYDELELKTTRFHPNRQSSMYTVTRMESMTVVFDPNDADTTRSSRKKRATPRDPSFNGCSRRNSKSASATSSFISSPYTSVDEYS
Procedure: [The procedure below names another target; the source lists this target under the same test.] (§1) This test evaluates in vitro functional NK1 antagonistic activity. For the measurements of intracellular Ca^++ concentrations the cells were grown on 96-well (black wall/transparent bottom) plates from Costar for 2 days until they reached confluence. The cells were loaded with 2 μM Fluo3 in DMEM containing 0.1% BSA and 2.5 mM probenecid for 1 h at 37° C. They were washed 3× with a Krebs buffer (140 mM NaCl, 1 mM MgCl2×6H2O, 5 mM KCl, 10 mM glucose, 5 mM HEPES; 1.25 mM CaCl2; pH 7.4) containing 2.5 mM probenecid and 0.1% BSA (Ca^++-buffer). The cells were preincubated with a concentration range of antagonists for 20 min at RT and Ca^++-signals after addition of the agonists were measured in a Fluorescence Image Plate Reader (FLIPR from Molecular Devices, Crawley, England). The peak of the Ca^++-transient was considered as the relevant signal and the mean values of corresponding wells were analysed as described below.
The sigmoidal dose response curves were analysed by computerised curve-fitting, using the GraphPad Program. […] For antagonist responses the IC50-value was calculated using non-linear regression.
The last columns indicates—without being limited therefore—for which the compounds might be most suitable. Of course, since for some neurokinin receptors no data was determined, it is obvious that these compounds might be attributed to another suitable use.

NK1 = NK1 (Homo sapiens, UniProt P25103); assay: Signal transduction (ST), intracellular Ca++ (FLIPR), NK1 antagonistic activity; format: cell-based; details: read-out: pIC50 NK1 (converted)
Procedure: as §1
The sigmoidal dose response curves were analysed by computerised curve-fitting, using the GraphPad Program. […] For antagonist responses the IC50-value was calculated using non-linear regression. […]

Sequence of NK1 (P25103 whole entry): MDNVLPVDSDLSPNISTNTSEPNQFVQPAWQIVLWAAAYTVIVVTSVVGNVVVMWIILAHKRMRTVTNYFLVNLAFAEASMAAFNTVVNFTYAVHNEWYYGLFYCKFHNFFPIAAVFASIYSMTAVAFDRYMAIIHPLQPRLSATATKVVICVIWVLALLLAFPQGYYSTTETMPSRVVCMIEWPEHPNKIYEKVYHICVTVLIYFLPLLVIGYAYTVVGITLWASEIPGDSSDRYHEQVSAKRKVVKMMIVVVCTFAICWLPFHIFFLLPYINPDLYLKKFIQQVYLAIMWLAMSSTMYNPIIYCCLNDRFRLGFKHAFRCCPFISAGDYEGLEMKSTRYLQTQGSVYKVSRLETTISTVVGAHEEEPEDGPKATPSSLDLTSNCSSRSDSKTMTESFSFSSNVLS

Row | SMILES | IC50 (NK3) [nM] | IC50 (NK1) [nM]
1 | O=C(c1ccccc1Cl)N1CCC(N2CCN([C@@H]3CCN(C(=O)c4cc(C(F)(F)F)cc(C(F)(F)F)c4)[C@H](Cc4ccc(Cl)c(Cl)c4)C3)CC2)C1 (relative stereo) [Compound 141] | 3160 | 126
2 | O=C(c1cc(C(F)(F)F)cc(C(F)(F)F)c1)N1CC[C@@H](N2CCN(C3CCN(S(=O)(=O)c4cccs4)C3)CC2)C[C@H]1Cc1ccc(Cl)c(Cl)c1 (relative stereo) [Compound 142] | 794 | 126
3 | O=C(C1CC1)N1CCC(N2CCN([C@@H]3CCN(C(=O)c4cc(C(F)(F)F)cc(C(F)(F)F)c4)[C@H](Cc4ccc(Cl)c(Cl)c4)C3)CC2)C1 (relative stereo) [Compound 143] | 3160 | 39.8
4 | O=C(c1cc(C(F)(F)F)cc(C(F)(F)F)c1)N1CC[C@H](N2CCN(C3CCN(S(=O)(=O)c4cccs4)C3)CC2)C[C@H]1Cc1ccc(Cl)c(Cl)c1 (relative stereo) [Compound 163] | 158 | 25.1
5 | O=C(C1CC1)N1CCC(N2CCN(C3CCN(C(=O)c4cc(C(F)(F)F)cc(C(F)(F)F)c4)C(Cc4ccccc4)C3)CC2)C1 (single isomer, unassigned) [Compound 70] | 501 | 12.6
6 | O=C(c1ccccc1Cl)N1CCC(N2CCN(C3CCN(C(=O)c4cc(C(F)(F)F)cc(C(F)(F)F)c4)C(Cc4ccccc4)C3)CC2)C1 (single isomer, unassigned) [Compound 87] | 1260 | 126
7 | O=C(C1CC1)N1CCC(N2CCN(C3CCN(C(=O)c4cc(C(F)(F)F)cc(C(F)(F)F)c4)C(Cc4ccccc4)C3)CC2)C1 (single isomer, unassigned) [Compound 137] | 6310 | 158
8 | O=C(c1ccoc1)N1CCC(N2CCN(C3CCN(C(=O)c4cc(C(F)(F)F)cc(C(F)(F)F)c4)C(Cc4ccccc4)C3)CC2)C1 (single isomer, unassigned) [Compound 138] | 6310 | 126
9 | O=C(C1CCOC1)N1CCC(N2CCN(C3CCN(C(=O)c4cc(C(F)(F)F)cc(C(F)(F)F)c4)C(Cc4ccccc4)C3)CC2)C1 (single isomer, unassigned) [Compound 139] | 6310 | 158
10 | O=C(c1ccccc1Cl)N1CCC(N2CCN(C3CCN(C(=O)c4cc(C(F)(F)F)cc(C(F)(F)F)c4)C(Cc4ccccc4)C3)CC2)C1 (single isomer, unassigned) [Compound 160] | 398 | 10
11 | CC(C)(C)OC(=O)N1CCC(N2CCN(C3CCN(C(=O)c4cc(C(F)(F)F)cc(C(F)(F)F)c4)C(Cc4ccc(Cl)c(Cl)c4)C3)CC2)C1 (single isomer, unassigned) [Compound 165] | 794 | 50.1
12 | O=C(C(=O)N1CCC(N2CCN(C3CCN(C(=O)c4cc(C(F)(F)F)cc(C(F)(F)F)c4)C(Cc4ccccc4)C3)CC2)C1)c1ccco1 (single isomer, unassigned) [Compound 191] | 2510 | 15.8
13 | N#Cc1cccc(C(=O)N2CCC(N3CCN(C4CCN(C(=O)c5cc(C(F)(F)F)cc(C(F)(F)F)c5)C(Cc5ccccc5)C4)CC3)C2)c1 (single isomer, unassigned) [Compound 192] | 631 | 10
14 | N#Cc1cccc(C(=O)N2CCC(N3CCN(C4CCN(C(=O)c5cc(C(F)(F)F)cc(C(F)(F)F)c5)C(Cc5ccccc5)C4)CC3)C2)c1 (single isomer, unassigned) [Compound 193] | 501 | 7.94
15 | O=C(c1cc(C(F)(F)F)cc(C(F)(F)F)c1)N1CCC(N2CCN(C3CCN(Cc4ccccc4)C3)CC2)CC1Cc1ccc(F)c(F)c1 (single isomer, unassigned) [Compound 222] | 6310 | 50.1
16 | O=C(c1cc(C(F)(F)F)cc(C(F)(F)F)c1)N1CCC(N2CCN(C3CCN(Cc4ccccc4)C3)CC2)CC1Cc1ccc(F)c(F)c1 (single isomer, unassigned) [Compound 223] | 1580 | 158
17 | O=C(C1CCOC1)N1CCC(N2CCN(C3CCN(C(=O)c4cc(C(F)(F)F)cc(C(F)(F)F)c4)C(Cc4ccc(F)c(F)c4)C3)CC2)C1 (single isomer, unassigned) [Compound 227] | 1580 | 3.16
18 | O=C(C1CC1)N1CCC(N2CCN(C3CCN(C(=O)c4cc(C(F)(F)F)cc(C(F)(F)F)c4)C(Cc4ccc(F)c(F)c4)C3)CC2)C1 (single isomer, unassigned) [Compound 231] | 3160 | 6.31

Row | SMILES | IC50 (NK3) [nM] | IC50 (NK1) [nM]
19 | CC(C(=O)N1CCC(N2CCN([C@H]3CCN(C(=O)c4cc(C(F)(F)F)cc(C(F)(F)F)c4)[C@H](Cc4ccc(F)c(F)c4)C3)CC2)C1)c1ccccc1 (single isomer, unassigned) [Compound 233] | 794 | 25.1
20 | O=C(c1cc(C(F)(F)F)cc(C(F)(F)F)c1)N1CCC(N2CCN(C3CCN(S(=O)(=O)c4cccs4)C3)CC2)CC1Cc1ccc(F)c(F)c1 (single isomer, unassigned) [Compound 234] | 3160 | 10
21 | Cc1nnsc1C(=O)N1CCC(N2CCN(C3CCN(C(=O)c4cc(C(F)(F)F)cc(C(F)(F)F)c4)C(Cc4ccc(F)c(F)c4)C3)CC2)C1 (single isomer, unassigned) [Compound 236] | 5010 | 3.98
22 | O=C(c1cnccn1)N1CCC(N2CCN(C3CCN(C(=O)c4cc(C(F)(F)F)cc(C(F)(F)F)c4)C(Cc4ccc(F)c(F)c4)C3)CC2)C1 (single isomer, unassigned) [Compound 237] | 3980 | 10
23 | O=C(C1CCOC1)N1CCC(N2CCN(C3CCN(C(=O)c4cc(C(F)(F)F)cc(C(F)(F)F)c4)C(Cc4ccc(F)c(F)c4)C3)CC2)C1 (single isomer, unassigned) [Compound 242] | 2510 | 10
24 | Cc1nnsc1C(=O)N1CCC(N2CCN(C3CCN(C(=O)c4cc(C(F)(F)F)cc(C(F)(F)F)c4)C(Cc4ccccc4)C3)CC2)C1 (single isomer, unassigned) [Compound 381] | 2510 | 5.01
25 | O=C(C1CCCCC1)N1CCC(N2CCN(C3CCN(C(=O)c4cc(C(F)(F)F)cc(C(F)(F)F)c4)C(Cc4ccccc4)C3)CC2)C1 (single isomer, unassigned) [Compound 402] | 501 | 15.8
26 | O=C(c1ccccc1)N1CCC(N2CCN(C3CCN(C(=O)c4cc(C(F)(F)F)cc(C(F)(F)F)c4)C(Cc4ccccc4)C3)CC2)C1 (stereo not shown) [Compound 3] | 1580 | 126
27 | O=C(c1cc(C(F)(F)F)cc(C(F)(F)F)c1)N1CC[C@H](N2CCN(C3CCN(c4nc5ccccc5s4)C3)CC2)C[C@H]1Cc1ccccc1 (stereo partly shown) [Compound 7] | 316 | 200
28 | Cn1c(N2CCC(N3CCN([C@H]4CCN(C(=O)c5cc(C(F)(F)F)cc(C(F)(F)F)c5)[C@H](Cc5ccccc5)C4)CC3)C2)nc2ccccc21 (stereo partly shown) [Compound 8] | 3980 | 100
29 | O=C(C1CCNCC1)N1CCC(N2CCN(C3CCN(C(=O)c4cc(C(F)(F)F)cc(C(F)(F)F)c4)C(Cc4ccccc4)C3)CC2)C1 (stereo not shown) [Compound 241] |  | 31.6
30 | O=C(c1cc(C(F)(F)F)cc(C(F)(F)F)c1)N1CCC(N2CCN(C3CCNC3)CC2)CC1Cc1ccc(Cl)c(Cl)c1 (stereo not shown) [Compound 244] |  | 79.4
31 | O=C(C1CC1)N1CC[C@H](N2CCN([C@@H]3CCN(C(=O)c4cc(C(F)(F)F)cc(C(F)(F)F)c4)[C@@H](Cc4ccc(Cl)c(Cl)c4)C3)CC2)C1 [Compound 245] |  | 50.1
32 | O=C(c1c(Cl)cccc1Cl)N1CC[C@H](N2CCN([C@@H]3CCN(C(=O)c4cc(C(F)(F)F)cc(C(F)(F)F)c4)[C@@H](Cc4ccc(Cl)c(Cl)c4)C3)CC2)C1 [Compound 246] |  | 126
33 | CC(C)(C)C(=O)N1CC[C@H](N2CCN([C@@H]3CCN(C(=O)c4cc(C(F)(F)F)cc(C(F)(F)F)c4)[C@@H](Cc4ccc(Cl)c(Cl)c4)C3)CC2)C1 [Compound 247] |  | 31.6
34 | CC(C)N/C(=C\[N+](=O)[O-])N1CCC(N2CCN(C3CCN(C(=O)c4cc(C(F)(F)F)cc(C(F)(F)F)c4)C(Cc4ccccc4)C3)CC2)C1 (stereo not shown) [Compound 354] |  | 31.6
35 | COCCOCC(=O)N1CCC(N2CCN([C@H]3CCN(C(=O)c4cc(C(F)(F)F)cc(C(F)(F)F)c4)[C@H](Cc4ccccc4)C3)CC2)C1 (stereo partly shown) [Compound 390] |  | 20
36 | O=C(c1cc(C(F)(F)F)cc(C(F)(F)F)c1)N1CCC(N2CCN(C3CCN(CCCCO)C3)CC2)CC1Cc1ccc(Cl)c(Cl)c1 (stereo not shown) [Compound 393] |  | 5.01
